Three compounds from US12503448B2, “Antibacterial and antiparasitic quinoxaline-2,3-diamine derivatives” (University College Cardiff Consultants Limited, priority 2019, dated 2025) can be followed below.

Values after ≈ are worked out from the molar mass of the structure shown. Like-named read-outs stand apart in the source and are kept apart here. Where only a bound is given, the exact number is not on record here.

Series [1] relates to F. hepatica newly excysted juveniles (NEJs). Put plainly: Newly excysted juveniles (NEJs) drug screen. The conditions noted are these: 10 μM, 72 h; higher score indicates lower worm activity. Type of series: cell-based, Fasciola hepatica. Also on record: scale not given here. The procedure, abridged: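 Italian-strain F. hepatica NEJs, 25 per well, exposed to compound at 10 μM (0.1% DMSO) for 72 h at 37 °C, 5% CO2. Each parasite scored for phenotype and motility; averaged over two replicates, higher score meaning lower worm activity.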

Series [2] can be described thus: Semi thermodynamic solubility. The conditions noted are these: thermodynamic from solid.
Series [3] is described as follows: Metabolic stability in mouse liver microsomes. The conditions noted are these: liver microsomes. On the technique in general: Microsomes from liver hold many membrane-bound enzymes, among them those of drug oxidation.
The next series relates to Schistosoma mansoni. Put plainly: Anti-schistosomal in vivo efficacy screen (murine model of schistosomiasis). To be noted: 100 mg/kg oral, two doses (day 1 and day 3), mice.
The next series deals with S. mansoni schistosomula. Put plainly: 72 hours schistosomula drug screen. To be noted: for Selectivity Index Schistosomula: HepG2 CC50 over schistosomula EC50; for EC50: Schistosoma mansoni. The series is classed as cell-based, Schistosoma mansoni. The procedure, abridged: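 Newly transformed S. mansoni schistosomula were screened for 72 h in 384-well format. Phenotype and motility were scored, and a schistosomula average was derived.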

Series [4] in a line: Mouse pharmacokinetics, oral cassette dosing. To be noted: for AUC(0-t) / Cmax / MRT last / Tmax: male, C57/BL6, mouse, plasma, po, 2.5 mg/kg; for Tlast: oral, nominal dose 2.5 mg/kg, cassette. As for the experimental part: Non-compartmental mouse pharmacokinetics (Male C57/BL6 Mouse, Fasted; 3 mice per group) were determined after oral administration of a nominal dose of 2.5 mg/kg of these formulations in cassettes (5 compounds/group) according to the protocols employed by WuXi (https://www.wuxiapptec.com; the CRO that conducted these studies).

A short description of a further series: MTT assay on HepG2 cells. The series is classed as cell-based. The conditions noted are these: human. As for the experimental part:
MTT Assay on HepG2 Cells Human Hepatocyte Carcinoma (HepG2) cells (85011430, Sigma Aldrich) were used to assess the overt toxicity of these anti-infective compounds. […] A negative control (1% v/v Triton X-100; X100, Sigma-Aldrich) was also included in each screen. After addition of compounds, each plate was then incubated for a further 20 hrs before application of MTT reagent (prepared as described in Nur-[…], Bari A, Ghabbour […], Hoffmann […] Nat Prod. 2017 Jun. 23; 80(6):1900-1908 for the assessment of compound cytotoxicity using the MTT assay. […] The plate was then further incubated for 4 hrs. After incubation, each plate was blotted dry under the laminar flow to remove the MTT treated culture media. A 100 μl DMSO: isopropanol (1:1) solution was then added to each well and the plate was then subsequently incubated for 10 minutes at 37° C. Following incubation, each plate was shaken again and then absorbance measured at 570 nm. The absorbance reading was corrected based on the average value of the wells used as blank (no cells). […] The data obtained in this manner is shown in Table 1 in the columns labelled “HepG2”. […] The selectivity indexes for schistosomula and adult worms are shown in the final two columns in Table 1.
A general note: Formazan colour is commonly taken as a measure of viable cells.

The next series deals with S. mansoni adult worms. Put plainly: Adult worm drug screen (WHO scoring, WormassayGP2). The series is classed as cell-based, Schistosoma mansoni. The procedure, abridged:
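Adult worms perfused from MF-1 mice 7 weeks after infection with 180 cercariae. Motility after drug exposure scored on the WHO-TDR 0–4 microscopic scale (0 = no movement, 4 = normal), checked by image-based motion analysis. Deposited eggs counted.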

For the next series, the system named is H3K4 methylation. The experiment in a line: Histone extraction and detection of global H3K4 methylation in treated adult worms. The series is classed as cell-based, Schistosoma mansoni. To be noted: sub-lethal concentration 0.0024 μM, male and female adult worms.
The nature of a further series: in vitro. The conditions noted are these: plasma.
Setting [5] is: average of phenotype and motility, read-out: EC50 Schistosomula average.
The mark [6] stands for this setting: schistosomula, 72 hour culture, read-out: EC50 Motility.
The mark [7] stands for this setting: schistosomula, 72 hour culture, read-out: EC50 Phenotype.

Method for Schistosoma mansoni: Anti-Schistosomal in vivo Efficacy Screen
An anti-schistosomal efficacy trial of the compounds described herein was conducted on a murine model of Schistosomiasis using the following procedure. Schistosoma mansoni cercaria were prepared from infected Biomphalaria glabrata snails by inducing synchronous shedding upon exposure to light for 40 minutes (in artificial pond water). […] A maximum of 6 mice were housed in a cage for the duration of the 7-week infection.
At 6 wks post infection (Day 42 post infection), mice were dosed with anthelmintic chemicals using autoclaved gavage needles for oral delivery. The gavage needle was dipped into a concentrated solution of sucrose (approx. 1 g/ml) before dosing as a refinement measure to reduce stress-related reactions.
For oral dosing, the compounds (dry powder) were weighed and prepared in an appropriate excipient (e.g. 10% DMSO, 20% Kolliphor EL and 70% sterile water). […]
At the end of the treatment (on day 48 post-infection), mice were perfused after receiving an intra-peritoneal administration of non-recoverable dose of sodium pentobarbital (100 μl/10 g body weight) containing 100 U/ml heparin solution (in 1×PBS). […] After incubation in a humidified environment containing 5% CO2 at 37° C. for at least 1 h, the quantification of worm burden per each mouse of each treatment was performed. […]

On to `O=[N+]([O-])c1ccc2nc(Nc3ccc(Cl)cc3)c(Nc3ccc(Cl)cc3)nc2c1` [Compound 4, N^2, N^3-bis(4-chlorophenyl)-6-nitroquinoxaline-2,3-diamine], for which, in series [1], the “Motility (M) Mean score” value is listed as 4.71 and the “Phenotype (P) Mean score” value amounted to 5.13. In series [2], the solubility (thermodynamic) (in general, the concentration in solution at equilibrium with solid) stood at 12.7 µM (≈ 5.41 µg/mL). Moreover, in [3], the half-life – broadly, how long it takes for the measured level to halve – at 1 μM was determined as 2.52 h and the microsomal CLint (usually the capacity of the preparation to metabolise the compound, expressed as a volume cleared per time) at 1 μM came to 9.18 µL/min/mg. Further, the “reduction in worm burden in vivo compared to the vehicle” value with Schistosoma mansoni is recorded as 35.5%. Further, the “reduction in egg count in vivo compared to the vehicle” value in the series on Schistosoma mansoni (liver eggs) is 39.9%. Besides, the “Selectivity Index Schistosomula” value in the series on S. mansoni schistosomula amounted to 28. For the same compound, in the series on S. mansoni schistosomula (setting [5]), the EC50 (commonly the concentration that produces a half-maximal response) worked out at 470 nM. Moreover, in the series with S. mansoni schistosomula (setting [6]), the concentration for a half-maximal effect (EC50) turned out to be 530 nM. Moreover, the EC50 in the series on S. mansoni schistosomula (setting [7]) is 400 nM. Also, in series [4], the AUC(0-t) (usually exposure summed from dosing to a finite time, without extrapolation to infinity) came out at 436 ng·h/mL; the Cmax (commonly the highest concentration seen after dosing) came out at 90.4 ng/mL; the MRT last (usually a mean duration of stay, worked out from the concentration-time curve) came out at 4.25 h; the Tmax (in general, the time from dosing to the highest level) amounted to 3.33 h. Also, in series [4], the Tlast is listed as 8.00 h.

As for `O=[N+]([O-])c1ccc2nc(Nc3cc(C(F)(F)F)ccc3F)c(Nc3cc(C(F)(F)F)ccc3F)nc2c1` [Compound 9, N^2, N^3-bis(2-fluoro-5-(trifluoromethyl)phenyl)-6-nitroquinoxaline-2,3-diamine], in series [1], the “Motility (M) Mean score” value is 3.68 and the “Phenotype (P) Mean score” value was 4.63. For the same compound, the solubility (thermodynamic) in series [2] turned out to be 6.95 µM (≈ 3.68 µg/mL). In series [3], the half-life at 1 μM was 1.45 h and the microsomal CLint at 1 μM turned out to be 16 µL/min/mg. Besides, the CC50 – broadly, the concentration at which the toxic effect on the cells reaches its halfway point – at 24 h in “MTT assay on HepG2 cells” amounted to 106000 nM. In addition, the “Selectivity Index Adult” value with S. mansoni adult worms (HepG2 CC50 over adult worm EC50) is recorded as 29464. Besides, the EC50 with S. mansoni adult worms (Schistosoma mansoni, adult worms) came out at 3.6 nM. Further, the “global H3K4 methylation compared to the negative control (DMSO)” value in the series on H3K4 methylation is reported as “significant % decrease”. In addition, the “Selectivity Index Schistosomula” value in the series on S. mansoni schistosomula worked out at 223. Besides, the EC50 with S. mansoni schistosomula (setting [5]) is 480 nM. For the same compound, in the series with S. mansoni schistosomula (setting [6]), the EC50 turned out to be 470 nM. Also, the EC50 with S. mansoni schistosomula (setting [7]) came to 480 nM. Besides, in series [4], the AUC(0-t) was 337 ng·h/mL, the highest level (Cmax) was 79.3 ng/mL, the MRT last amounted to 4.22 h and the Tmax came out at 4 h. Moreover, the Tlast in series [4] was found to be 8.00 h.

Compound `CC(=O)CC(c1ccccc1)c1c(O)c2ccccc2oc1=O` (stereo not drawn) [Warfarin, reference compound] returned a solubility (thermodynamic) in series [2] of over 100 µM. Besides, the fraction unbound (as a rule, the share of the substance not bound to proteins or other matrix) in “in vitro” came out at 0.0727.
